In patent publication US6562873B2, “Compositions containing therapeutically active components having enhanced solubility” (Allergan, Inc., priority 2000, dated 2003):
Like-named read-outs stand apart in the source and are kept apart here. Marks after values point to notes of the source that are not given here.

What was measured:
[1] = for Solubility of Brimonidine tartrate (%): 15 days; for soluble Brimonidine tartrate: FIG. 1
Description: The pH-solubility profiles of Brimonidine tartrate in compositions (solutions) containing SECs and oxy-chloro components were determined. Particularly, the effects of sodium carboxymethylcellulose (CMC), an SEC, on the solubility of Brimonidine tartrate at various pH conditions were determined. The various concentrations of CMC tested with Brimonidine tartrate were 0%, 0.056%, 0.17%, 0.5%, 1.5% (w/v), Table III.
The samples tested also contained isotonic components, buffer components, and stabilized chlorine dioxide (Purite™), Table III. Sodium carboxymethyl-cellulose, sodium chloride, potassium chloride, calcium chloride dihydrate, and magnesium chloride hexahydrate were USP grade. Boric acid and sodium borate decahydrate were NF grade.
Each sample (1 through 5) was subjected to a range of pH's from about 7 to about 10. The vials containing the sample solutions were placed on a laboratory rotator and left for equilibration for fifteen days at room temperature (^˜21° C.). The sample solutions were filtered using a 25 mm diameter polysulfone cellulose acetate syringe type filter with 0.45 μm pore size. The filtered solutions were assayed for Brimonidine.
Conventional HPLC and detection techniques were used to detect and determine the concentrations of soluble Brimonidine tartrate. […] The solubility is plotted against pH for each CMC concentration. The experimental data points were fitted to a modified Henderson-Hasselbalch equation using a nonlinear least squares routine (Deltagraph version 4.0 DeltaPoint, Inc.), FIG. 1.

[2] = for Solubility: 23° C., 2 days stirring, theoretical concentration based on sample weight, all dissolved
Description: Table 1. It will be understood that concentrations of adrenergic agonists other than 0.5% may be used, so long as they have therapeutic activity. Likewise, the temperature may be varied, for example, solubility curves may be performed at 37° C. (98.6° F.). The formulation vehicle was prepared by first dissolving polyvinyl alcohol (PVA) in water. The PVA was added to approximately ⅓ of the required total amount of purified water with constant stirring. The slurry was stirred for 20-30 minutes and then heated to 80-95° C. with constant stirring. The mixture was removed from the heat source within 1 hour after having reached the temperature of 80-90° C. and stirred for an additional 10 minutes to ensure homogeneity (Part I). The other ingredients of the Ophthalmic Solution, except for Brimonidine tartrate, were dissolved in a separate container with an additional ⅓ of the required total amount of purified water (Part II). The PVA mixture (Part I) was then quantitatively transferred to Part II using several rinse volumes of purified water. The solution was adjusted to final volume with purified water without pH adjustment.
Brimonidine tartrate was weighed and transferred to a 10 mL test tube containing 5 mL of the formulation vehicle described above. The pH of each sample was then adjusted to a desired value using dilute sodium hydroxide and/or dilute hydrochloric acid. The samples were placed in a rack on a stir plate and stirred at high speed to achieve uniform mixing for 2 days; a partition was placed between the rack and the stir plate to prevent any heat diffusion from the stir plate to the samples.
At the end of two days of stirring, the pH value of each sample was measured, and then approximately 1 mL of each sample was placed in a micro centrifuge tube (polypropylene) and centrifuged at 4,000 rpm for 10 minutes. The supernatant was filtered through a 1 μm filter unit (Whatman, 13 mm, PTFE). The first 3-4 drops of the filtrate were discarded; the rest of the filtrate was received and diluted quantitatively with HPLC mobile phase. […] A control of […] Brimonidine tartrate was prepared in the formulation vehicle at pH 6.3-6.5 and assayed before (untreated) and after (treated) centrifugation and filtration. This was done to evaluate the potential loss of Brimonidine tartrate in these two steps of the sample preparation. To ensure reproducibility, the study was repeated on consecutive days.

With “5-bromo-6-(2-imidozolin-2-ylamino) quinoxaline [Brimonidine tartrate]” the “Solubility of Brimonidine tartrate (%)” value ([1]; 0% CMC, pH 6.68, room temperature (~21° C.)) was 1.4256%, the “Solubility of Brimonidine tartrate (%)” value ([1]; 0% CMC, pH 7.11, room temperature (~21° C.)) was 0.2064% and the “Solubility of Brimonidine tartrate (%)” value ([1]; 0% CMC, pH 7.68, room temperature (~21° C.)) was 0.0786%. For the same substance, the “Solubility of Brimonidine tartrate (%)” value ([1]; 0% CMC, pH 8.50, room temperature (~21° C.)) was 0.0286%, the “Solubility of Brimonidine tartrate (%)” value ([1]; 0% CMC, pH 10.09, room temperature (~21° C.)) was 0.0218% and the “Solubility of Brimonidine tartrate (%)” value ([1]; 0.056% CMC, pH 6.67, room temperature (~21° C.)) was 0.9302%. The “Solubility of Brimonidine tartrate (%)” value ([1]; 0.056% CMC, pH 7.11, room temperature (~21° C.)) was 0.2828%, the “Solubility of Brimonidine tartrate (%)” value ([1]; 0.056% CMC, pH 7.77, room temperature (~21° C.)) was 0.0721% and the “Solubility of Brimonidine tartrate (%)” value ([1]; 0.056% CMC, pH 9.93, room temperature (~21° C.)) was 0.0234%. The “Solubility of Brimonidine tartrate (%)” value ([1]; 0.17% CMC, pH 6.68, room temperature (~21° C.)) was 1.4200%, the “Solubility of Brimonidine tartrate (%)” value ([1]; 0.17% CMC, pH 6.93, room temperature (~21° C.)) was 0.7302% and the “Solubility of Brimonidine tartrate (%)” value ([1]; 0.17% CMC, pH 7.81, room temperature (~21° C.)) was 0.0735%. The “Solubility of Brimonidine tartrate (%)” value ([1]; 0.17% CMC, pH 8.55, room temperature (~21° C.)) was 0.0328%, the “Solubility of Brimonidine tartrate (%)” value ([1]; 0.17% CMC, pH 10.05, room temperature (~21° C.)) was 0.0241% and the “Solubility of Brimonidine tartrate (%)” value ([1]; 0.5% CMC, pH 6.67, room temperature (~21° C.)) was 1.4464%. The “Solubility of Brimonidine tartrate (%)” value ([1]; 0.5% CMC, pH 7.10, room temperature (~21° C.)) was 0.3693%, the “Solubility of Brimonidine tartrate (%)” value ([1]; 0.5% CMC, pH 7.56, room temperature (~21° C.)) was 0.1451% and the “Solubility of Brimonidine tartrate (%)” value ([1]; 0.5% CMC, pH 8.46, room temperature (~21° C.)) was 0.0313%. The “Solubility of Brimonidine tartrate (%)” value ([1]; 0.5% CMC, pH 9.94, room temperature (~21° C.)) was 0.0250%, the “Solubility of Brimonidine tartrate (%)” value ([1]; 1.5% CMC, pH 7.35, room temperature (~21° C.)) was 0.1904% and the “Solubility of Brimonidine tartrate (%)” value ([1]; 1.5% CMC, pH 8.10, room temperature (~21° C.)) was 0.0498%. The “Solubility of Brimonidine tartrate (%)” value ([1]; 1.5% CMC, pH 8.67, room temperature (~21° C.)) was 0.0311%, the “Solubility of Brimonidine tartrate (%)” value ([1]; 1.5% CMC, pH 10.11, room temperature (~21° C.)) was 0.0222% and the “effect of CMC concentration on solubility” value ([1]; FIG. 1, 0-1.5% CMC) was “tends to increase with increasing CMC concentrations”. For the same substance, the “soluble Brimonidine tartrate” value ([1]; pH 7.5, 0% CMC) was 1000 ppm, the “soluble Brimonidine tartrate” value ([1]; pH 7.5, 0.056% CMC) was 1300 ppm and the “soluble Brimonidine tartrate” value ([1]; pH 7.5, 0.17% CMC) was 1300 ppm. For the same substance, the “soluble Brimonidine tartrate” value ([1]; pH 7.5, 0.5% CMC) was 1600 ppm, the “soluble Brimonidine tartrate” value ([1]; pH 7.5, 1.5% CMC) was “about 1400 ppm” and the “Concentration of Brimonidine tartrate in control after centrifugation and filtration step” value ([2]; Control (treated), formulation vehicle at pH 6.3-6.5, Study 1) was 0.484^d % w/v. The “Concentration of Brimonidine tartrate in control before centrifugation and filtration step” value ([2]; Control (untreated), formulation vehicle at pH 6.3-6.5, Study 1) was 0.486^c % w/v, the Solubility ([2]; Study 1, sample 1, pH 5.55, Ophthalmic Solution vehicle) was “≦164.4^b % w/v” and the Solubility ([2]; Study 2, sample 1, pH 5.50, Ophthalmic Solution vehicle) was “≦200.6^b % w/v”.
